Data reported in ChEMBL document CHEMBL3885861, “Open TG-GATES”.

Species: Rattus norvegicus
Experiment: Open TG-GATES - Regimen: Daily Repeat
Type: toxicity, organism-based, Sprague-Dawley
Set-up: regimen Daily Repeat, gender Male, age 6 weeks
Conditions: in vivo, iv, route intravenous injection; for gamma-GTP / ALP / ALT / AST / BUN / CRE / DBIL / GLC / IP / K / LDH / PL / RALB / TBIL / TC / TP / TG: tissue Plasma; for APTT / Bas / Eos / Fbg / Hb / Ht / Lym / MCH / MCHC / Mono / Neu / PT / Plat / RBC / Ret / WBC / MCV: tissue Blood; for KIDNEY_L / KIDNEY_R / KIDNEY_TOTAL: tissue Kidney; for LIVER: tissue Liver
[1] = 30 mg/kg, 72 h, dose level Middle, time 3 day
[2] = 30 mg/kg, […], dose level Middle, time 7 day
[3] = 30 mg/kg, […], dose level Middle, time 14 day
[4] = 30 mg/kg, […], dose level Middle, time 28 day
[5] = 100 mg/kg, 72 h, dose level High, time 3 day
[6] = 100 mg/kg, […], dose level High, time 7 day
[7] = 100 mg/kg, […], dose level High, time 14 day
[8] = 100 mg/kg, […], dose level High, time 28 day

## GENTAMICIN
10 mg/kg, […], dose level Low, time 28 day
  gamma-GTP: 2 IU/L
[1]
  TERMINAL_BW: 231.1 g
  APTT: 22 s
  Bas: 0%
  Eos: 1%
  Fbg: 292.8 mg/dL
  Hb: 12.8 g/dL
  Ht: 37.4%
  Lym: 75.4%
  MCH: 21 pg
  MCHC: 34.2%
  Mono: 3.2%
  Neu: 19.8%
  PT: 16.5 s
  Plat: 116.2 x10_4/uL
  RBC: 608.6 x10_4/ul
  Ret: 5.4%
  WBC: 99.7 x10_2/uL
  KIDNEY_L: 1 g
  KIDNEY_R: 1 g
  KIDNEY_TOTAL: 2 g
  ALP: 1568.4 IU/L
  ALT: 38.4 IU/L
  AST: 70.6 IU/L
  BUN: 19 mg/dL
  CRE: 0.2 mg/dL
  DBIL: 0 mg/dL
  GLC: 170.6 mg/dL
  IP: 6.8 mg/dL
  K: 4.7 meq/L
  LDH: 175 IU/L
  PL: 147.8 mg/dL
  RALB: 3 g/dL
  TBIL: 0.008 mg/dL
  TC: 69.2 mg/dL
  TP: 5.4 g/dL
  gamma-GTP: 1.8 IU/L
[2]
  TERMINAL_BW: 256.1 g
  APTT: 24.3 s
  Bas: 0%
  Eos: 1.2%
  Fbg: 303.4 mg/dL
  Ht: 39%
  Lym: 75%
  MCH: 21 pg
  MCHC: 34.7%
  MCV: 60.6 fL
  Mono: 4%
  PT: 15.9 s
  Plat: 111.1 x10_4/uL
  RBC: 644.4 x10_4/ul
  Ret: 4.1%
  WBC: 106.4 x10_2/uL
  KIDNEY_L: 1.1 g
  KIDNEY_R: 1.1 g
  KIDNEY_TOTAL: 2.1 g
  LIVER: 10.8 g
  ALP: 1481.6 IU/L
  ALT: 40.6 IU/L
  BUN: 17 mg/dL
  CRE: 0.2 mg/dL
  DBIL: 0 mg/dL
  GLC: 174.8 mg/dL
  IP: 6.1 mg/dL
  K: 4.5 meq/L
  LDH: 152.6 IU/L
  PL: 146.8 mg/dL
  RALB: 3 g/dL
  TBIL: 0.006 mg/dL
  TC: 72 mg/dL
  TG: 131.4 mg/dL
  TP: 5.6 g/dL
  gamma-GTP: 1.6 IU/L
[3]
  TERMINAL_BW: 289.4 g
  APTT: 22.8 s
  Bas: 0%
  Eos: 0.8%
  Fbg: 296.4 mg/dL
  Ht: 40.3%
  Lym: 81.4%
  MCHC: 35.7%
  MCV: 58.2 fL
  Mono: 2.2%
  Plat: 106 x10_4/uL
  RBC: 693.6 x10_4/ul
  Ret: 3.2%
  WBC: 131.7 x10_2/uL
  KIDNEY_L: 1.2 g
  KIDNEY_R: 1.2 g
  KIDNEY_TOTAL: 2.4 g
  LIVER: 10.8 g
  ALP: 1265.2 IU/L
  ALT: 36.8 IU/L
  AST: 67.6 IU/L
  CRE: 0.2 mg/dL
  DBIL: 0 mg/dL
  GLC: 176.4 mg/dL
  IP: 5.9 mg/dL
  K: 4.3 meq/L
  LDH: 144.8 IU/L
  PL: 140.2 mg/dL
  RALB: 3 g/dL
  TBIL: 0.008 mg/dL
  TC: 68.6 mg/dL
  TG: 114 mg/dL
  TP: 5.7 g/dL
  gamma-GTP: 1.8 IU/L
[4]
  TERMINAL_BW: 356.8 g
  APTT: 23.3 s
  Bas: 0%
  Eos: 0.8%
  Fbg: 308 mg/dL
  Hb: 15.3 g/dL
  Ht: 42.9%
  Lym: 80.4%
  MCH: 19.2 pg
  MCHC: 35.7%
  MCV: 53.7 fL
  Mono: 2.4%
  Plat: 107.2 x10_4/uL
  RBC: 799 x10_4/ul
  Ret: 1.8%
  WBC: 106 x10_2/uL
  KIDNEY_L: 1.5 g
  KIDNEY_R: 1.6 g
  KIDNEY_TOTAL: 3.1 g
  LIVER: 12.3 g
  ALP: 959 IU/L
  ALT: 31 IU/L
  CRE: 0.3 mg/dL
  DBIL: 0.002 mg/dL
  GLC: 176.4 mg/dL
  IP: 5.6 mg/dL
  K: 4.2 meq/L
  LDH: 109.8 IU/L
  PL: 130 mg/dL
  RALB: 3 g/dL
  TBIL: 0.01 mg/dL
  TC: 68.4 mg/dL
  TG: 103 mg/dL
  TP: 5.8 g/dL
  gamma-GTP: 2.2 IU/L
[5]
  TERMINAL_BW: 229.2 g
  APTT: 22 s
  Bas: 0%
  Eos: 1%
  Fbg: 294.4 mg/dL
  Ht: 38.2%
  Lym: 80.8%
  MCH: 21 pg
  MCHC: 34.3%
  MCV: 61.1 fL
  Mono: 3.8%
  Neu: 13%
  PT: 16.5 s
  Plat: 115 x10_4/uL
  RBC: 625.8 x10_4/ul
  Ret: 4.8%
  WBC: 83.9 x10_2/uL
  KIDNEY_L: 1 g
  KIDNEY_R: 1 g
  KIDNEY_TOTAL: 2 g
  LIVER: 10 g
  ALP: 1437 IU/L
  AST: 67.4 IU/L
  CRE: 0.2 mg/dL
  DBIL: 0 mg/dL
  GLC: 170 mg/dL
  IP: 6.8 mg/dL
  K: 4.7 meq/L
  LDH: 137.2 IU/L
  PL: 131.4 mg/dL
  RALB: 3 g/dL
  TBIL: 0.014 mg/dL
  TC: 64.8 mg/dL
  TG: 100 mg/dL
  TP: 5.5 g/dL
  gamma-GTP: 1.4 IU/L
[6]
  TERMINAL_BW: 262.4 g
  APTT: 24.3 s
  Bas: 0%
  Eos: 1.2%
  Fbg: 314.2 mg/dL
  Lym: 77.6%
  MCHC: 34.5%
  MCV: 60.6 fL
  Mono: 4.2%
  Plat: 106.7 x10_4/uL
  RBC: 646.4 x10_4/ul
  Ret: 4.3%
  WBC: 117.3 x10_2/uL
  KIDNEY_L: 1.2 g
  KIDNEY_R: 1.2 g
  KIDNEY_TOTAL: 2.5 g
  LIVER: 10.9 g
  ALP: 1249 IU/L
  ALT: 39.8 IU/L
  AST: 73 IU/L
  CRE: 0.2 mg/dL
  DBIL: 0 mg/dL
  GLC: 182.6 mg/dL
  IP: 6 mg/dL
  K: 4.6 meq/L
  LDH: 158.8 IU/L
  PL: 139.8 mg/dL
  RALB: 3 g/dL
  TBIL: 0.004 mg/dL
  TC: 71 mg/dL
  TG: 91.4 mg/dL
  TP: 5.6 g/dL
  gamma-GTP: 2 IU/L
[7]
  TERMINAL_BW: 275.2 g
  APTT: 23.3 s
  Bas: 0%
  Eos: 1%
  Fbg: 320.8 mg/dL
  Lym: 83%
  MCH: 21.1 pg
  MCHC: 36.2%
  MCV: 58.1 fL
  Mono: 3%
  PT: 16.4 s
  Plat: 114.3 x10_4/uL
  RBC: 701.8 x10_4/ul
  Ret: 1.8%
  WBC: 106.6 x10_2/uL
  KIDNEY_L: 1.5 g
  KIDNEY_R: 1.5 g
  KIDNEY_TOTAL: 3 g
  LIVER: 10.2 g
  ALP: 1114.5 IU/L
  ALT: 33.5 IU/L
  AST: 71.8 IU/L
  BUN: 20 mg/dL
  CRE: 0.3 mg/dL
  DBIL: 0 mg/dL
  IP: 6 mg/dL
  K: 4.2 meq/L
  PL: 148.8 mg/dL
  RALB: 3.1 g/dL
  TBIL: 0.015 mg/dL
  TC: 81.8 mg/dL
  TG: 98.2 mg/dL
  TP: 5.7 g/dL
  gamma-GTP: 2.5 IU/L
[8]
  TERMINAL_BW: 315.6 g
  APTT: 23.9 s
  Bas: 0%
  Eos: 1.2%
  Fbg: 282.2 mg/dL
  Hb: 14.7 g/dL
  Ht: 40.7%
  Lym: 83.5%
  MCH: 19 pg
  MCHC: 36.1%
  MCV: 52.6 fL
  Mono: 2.2%
  Neu: 11.5%
  PT: 16.5 s
  Plat: 118.3 x10_4/uL
  RBC: 773 x10_4/ul
  Ret: 1.3%
  WBC: 112.9 x10_2/uL
  KIDNEY_L: 1.6 g
  KIDNEY_R: 1.7 g
  KIDNEY_TOTAL: 3.3 g
  ALP: 662.5 IU/L
  AST: 67 IU/L
  BUN: 18 mg/dL
  CRE: 0.3 mg/dL
  DBIL: 0 mg/dL
  IP: 5.8 mg/dL
  K: 3.6 meq/L
  LDH: 109.2 IU/L
  PL: 112 mg/dL
  RALB: 3.1 g/dL
  TBIL: 0.03 mg/dL
  TC: 67 mg/dL
  TG: 40 mg/dL
  TP: 5.9 g/dL
  gamma-GTP: 2.5 IU/L
